According to US4243408A, “Herbicidal N-triazolylmethyl-substituted alpha-haloacetanilide” (Chevron Research Company, priority 1978, dated 1981):

Experiments:
Type in all cases: in vivo
[1] = tested on: Crabgrass (Digitaria sanguinalis); assay: Pre-Emergent Test, herbicidal effectiveness; details: pre-emergence, 504 h, 33 micrograms per cm^2, 3 weeks, 0-to-100 scale, read-out: Herbicidal Effectiveness, % Control Pre, C
Procedure: (§1) An acetone solution of the test compound was prepared by mixing 750 mg of the compound, 220 mg of a nonionic surfactant and 25 ml of acetone. This solution was added to approximately 125 ml of water containing 156 mg of surfactant.
(§2) Seeds of the test vegetation were planted in a pot of soil and the test solution was sprayed uniformly onto the soil surface at a dose of 33 micrograms/cm^2. The pot was watered and placed in a greenhouse. […] At the end of this period, the herbicidal effectiveness of the compound was rated based on the physiological observations. A 0-to-100 scale was used, 0 representing no phytotoxicity, 100 representing complete kill.

[2] = tested on: Lambsquarter (Chenopodium album); assay: Pre-Emergent Test, herbicidal effectiveness; details: pre-emergence, 504 h, 33 micrograms per cm^2, 3 weeks, 0-to-100 scale, read-out: Herbicidal Effectiveness, % Control Pre, L
Procedure: as §1, §2

[3] = tested on: Mustard (Brassica arvensis); assay: Pre-Emergent Test, herbicidal effectiveness; details: pre-emergence, 504 h, 33 micrograms per cm^2, 3 weeks, 0-to-100 scale
Procedure: as §1, §2

[4] = tested on: Pigweed (Amaranthus retroflexus); assay: Pre-Emergent Test, herbicidal effectiveness; details: pre-emergence, 504 h, 33 micrograms per cm^2, 3 weeks, 0-to-100 scale, read-out: Herbicidal Effectiveness, % Control Pre, P
Procedure: as §1, §2

Watergrass (Echinochloa) [5] = assay: Pre-Emergent Test, herbicidal effectiveness; details: pre-emergence, 504 h, 33 micrograms per cm^2, 3 weeks, 0-to-100 scale, read-out: Herbicidal Effectiveness, % Control Pre, W
Procedure: as §1, §2

Wild Oats (Avena fatua) [6] = assay: Pre-Emergent Test, herbicidal effectiveness; details: pre-emergence, 504 h, 33 micrograms per cm^2, 3 weeks, 0-to-100 scale, read-out: Herbicidal Effectiveness, % Control Pre, O
Procedure: as §1, §2

[7] = tested on: Crabgrass (Digitaria sanguinalis); assay: Post-Emergent Test, herbicidal effectiveness; details: post-emergence, 504 h, 33 micrograms per cm^2, 3 weeks, 0-to-100 scale, read-out: Herbicidal Effectiveness, % Control Post, C
[8] = tested on: Lambsquarter (Chenopodium album); assay: Post-Emergent Test, herbicidal effectiveness; details: post-emergence, 504 h, 33 micrograms per cm^2, 3 weeks, 0-to-100 scale, read-out: Herbicidal Effectiveness, % Control Post, L
[9] = tested on: Mustard (Brassica arvensis); assay: Post-Emergent Test, herbicidal effectiveness; details: post-emergence, 504 h, 33 micrograms per cm^2, 3 weeks, 0-to-100 scale
[10] = tested on: Pigweed (Amaranthus retroflexus); assay: Post-Emergent Test, herbicidal effectiveness; details: post-emergence, 504 h, 33 micrograms per cm^2, 3 weeks, 0-to-100 scale, read-out: Herbicidal Effectiveness, % Control Post, P
Watergrass (Echinochloa) [11] = assay: Post-Emergent Test, herbicidal effectiveness; details: post-emergence, 504 h, 33 micrograms per cm^2, 3 weeks, 0-to-100 scale, read-out: Herbicidal Effectiveness, % Control Post, W
Wild Oats (Avena fatua) [12] = assay: Post-Emergent Test, herbicidal effectiveness; details: post-emergence, 504 h, 33 micrograms per cm^2, 3 weeks, 0-to-100 scale, read-out: Herbicidal Effectiveness, % Control Post, O

| Structure (SMILES) | pest or weed control at 33 µg/cm2 [1] [%] | pest or weed control at 33 µg/cm2 [2] [%] | pest or weed control at 33 µg/cm2 [3] [%] | pest or weed control at 33 µg/cm2 [4] [%] | pest or weed control at 33 µg/cm2 (Watergrass (Echinochloa) [5]) [%] | pest or weed control at 33 µg/cm2 (Wild Oats (Avena fatua) [6]) [%] | pest or weed control at 5000 µg/mL, 33 µg/cm2 [7] [%] | pest or weed control at 5000 µg/mL, 33 µg/cm2 [8] [%] | pest or weed control at 5000 µg/mL, 33 µg/cm2 [9] [%] | pest or weed control at 5000 µg/mL, 33 µg/cm2 [10] [%] | pest or weed control at 5000 µg/mL, 33 µg/cm2 (Watergrass (Echinochloa) [11]) [%] | pest or weed control at 5000 µg/mL, 33 µg/cm2 (Wild Oats (Avena fatua) [12]) [%] |
| --- | --- | --- | --- | --- | --- | --- | --- | --- | --- | --- | --- | --- |
| Cc1nnc(CCNc2c(C)cccc2C)[nH]1 [Compound 10A] | 0 | 0 | 0 | 0 | 0 | 0 | 0 | 0 | 0 | 0 | 0 | 0 |
| Cc1nnc(CCN(C(=O)CCl)c2c(C)cccc2C)[nH]1 [Compound 10B] | 80 | 0 | 0 | 0 | 95 | 15 | 40 | 25 | 35 | 0 | 55 | 25 |
| Cc1nnc(C(C)Nc2c(C)cccc2C)[nH]1 (stereo not drawn) [Compound 11A] | 0 | 0 | 0 | 0 | 0 | 0 | 0 | 0 | 0 | 0 | 0 | 0 |
| Cc1nnc(C(C)N(C(=O)CCl)c2c(C)cccc2C)[nH]1 (stereo not drawn) [Compound 11B] | 100 | 100 | 80 | 90 | 100 | 97 | 55 | 25 | 20 | 20 | 73 | 10 |
| Cc1cccc(C)c1NC(C)c1nnc[nH]1 (stereo not drawn) [Compound 12A] | 0 | 0 | 0 | 0 | 0 | 0 | 0 | 0 | 0 | 0 | 0 | 0 |
| Cc1cccc(C)c1N(C(=O)CCl)C(C)c1nnc[nH]1 (stereo not drawn) [Compound 12B] | 100 | 75 | 75 | 90 | 100 | 97 | 65 | 45 | 0 | 20 | 80 | 45 |
| Cc1cccc(C)c1N(CCc1nnc[nH]1)C(=O)CCl [Compound 13] | 85 | 75 | 20 | 40 | 97 | 25 | 60 | 0 | 0 | 0 | 63 | 20 |
